Data on 21 compounds can be found in ChEMBL document CHEMBL5120817, “Quinone Derivatives as Promising Anti-Helicobacter pylori Agents from Aerial Parts of Mitracarpus hirtus” (2022).

≈ marks a conversion by molar mass, not a printed value.

Assay type in all cases: functional
Experiment [1] deals with Helicobacter pylori. As to the kind of experiment: Antibacterial activity against multidrug resistant Helicobacter pylori G27 assessed as bacterial growth inhibition incubated for 3 days by broth microdilution method. Conditions: G27, 72 h, time 3 day.
Experiment [2] has as its system Helicobacter pylori. As to the kind of experiment: Antibacterial activity against multidrug resistant Helicobacter pylori JRES00015 assessed as bacterial growth inhibition incubated for 3 days by broth microdilution method. The note with it: JRES00015, 72 h, time 3 day.
In experiment [3] the test system is Helicobacter pylori. Briefly: Antibacterial activity against multidrug resistant Helicobacter pylori HP159 assessed as bacterial growth inhibition incubated for 3 days by broth microdilution method. The note with it: HP159, 72 h, time 3 day.
Experiment [4] deals with Helicobacter pylori. As to the kind of experiment: Antibiofilm activity against Helicobacter pylori G27 assessed as reduction in viable bacteria within biofilms at 0.25 ug/ml incubated for 20 hrs by alamar blue assay. The note with it: dose 0.25 µg/ml.
For experiment [5], the system named is Helicobacter pylori. As to the kind of experiment: Antibiofilm activity against Helicobacter pylori G27 assessed as reduction in preformed bacterial biofilm at 4 times MIC by crystal violet staining based assay. Set-up: scale not given: the % may be the effect or the level left.
The subject of experiment [6] is Helicobacter pylori. As to the kind of experiment: Antibiofilm activity against Helicobacter pylori G27 assessed as reduction in viable cells count at 4 times MIC.
Experiment [7] has as its system Helicobacter pylori. As to the kind of experiment: Potency index, ratio of metronidazole MIC to test compound MIC for antibacterial activity against multidrug resistant Helicobacter pylori JRES00015.

Regarding `Cc1ccc2c(c1)C(=O)c1cc(O)ccc1C2=O`, the MIC was determined as 8 µg/mL (≈ 33.6 µM) in the experiment on Helicobacter pylori [1], 16 µg/mL (≈ 67.2 µM) with Helicobacter pylori [2] and 8 µg/mL (≈ 33.6 µM) in the experiment on Helicobacter pylori [3].

For `O=C1c2ccccc2C(=O)c2cnccc21`, the figures for the minimum inhibitory concentration (MIC) in the experiment on Helicobacter pylori [1], in the experiment on Helicobacter pylori [2] and in the experiment with Helicobacter pylori [3] were 0.125 µg/mL (≈ 0.598 µM), 0.0625 µg/mL (≈ 0.299 µM) and 0.0625 µg/mL (≈ 0.299 µM), respectively. Moreover, the Activity with Helicobacter pylori [4] is 100%; in the experiment with Helicobacter pylori [5], 51%; with Helicobacter pylori [6], 4.65 log10CFU/ml. Further, the Ratio with Helicobacter pylori [7] was found to be 512.

For the compound `O=C1c2ccccc2C(=O)c2cc(CO)ccc21`, the MIC in the experiment with Helicobacter pylori [1], in the experiment on Helicobacter pylori [2] and in the experiment on Helicobacter pylori [3] was 8 µg/mL (≈ 33.6 µM) each time.

Regarding `O=C(O)c1ccc2c(c1)C(=O)c1ccccc1C2=O`, the values for the MIC in the experiment on Helicobacter pylori [1], in the experiment with Helicobacter pylori [2] and in the experiment with Helicobacter pylori [3] were 0.5 µg/mL (≈ 1.98 µM), 0.25 µg/mL (≈ 0.991 µM) and 1 µg/mL (≈ 3.96 µM), respectively.

Take `COc1cc2c(cc1O)C(=O)c1cc(C)ccc1C2=O`: the MIC is 16 µg/mL (≈ 59.6 µM) with Helicobacter pylori [1], 16 µg/mL (≈ 59.6 µM) in the experiment with Helicobacter pylori [2] and 8 µg/mL (≈ 29.8 µM) in the experiment on Helicobacter pylori [3].

As for `Cc1ccc2c(c1)C(=O)c1cc(O)c(O)cc1C2=O`, the MIC with Helicobacter pylori [1], in the experiment with Helicobacter pylori [2] and in the experiment with Helicobacter pylori [3] was 32 µg/mL (≈ 126 µM) throughout.

`CO[C@@H]1Cc2c(c(O[C@@H]3O[C@H](C)[C@@H](O)[C@H](O)[C@H]3O)c3ccccc3c2O[C@@H]2O[C@H](CO)[C@@H](O)[C@H](O)[C@H]2O)CO1`: the MIC in the experiment with Helicobacter pylori [1] came to 64 µg/mL (≈ 115 µM); with Helicobacter pylori [2], 32 µg/mL (≈ 57.7 µM); in the experiment with Helicobacter pylori [3], 64 µg/mL (≈ 115 µM).

For `OC[C@H]1O[C@@H](Oc2c3c(c(O[C@@H]4O[C@H](CO)[C@@H](O)[C@H](O)[C@H]4O)c4ccccc24)CC(O)OC3)[C@H](O)[C@@H](O)[C@@H]1O` (stereo not given in full), the MIC in the experiment on Helicobacter pylori [1], in the experiment with Helicobacter pylori [2] and in the experiment on Helicobacter pylori [3] was over 64 µg/mL in each case.

For `O=C1C2=C(C(=O)c3ccccc31)C(O)OCC2` (stereo not given), the figures for the MIC with Helicobacter pylori [1], in the experiment with Helicobacter pylori [2] and in the experiment with Helicobacter pylori [3] were 0.125 µg/mL (≈ 0.543 µM), 0.0625 µg/mL (≈ 0.271 µM) and 0.125 µg/mL (≈ 0.543 µM), respectively. Also, in the experiment on Helicobacter pylori [7], the Ratio was determined as 512.

In the case of `C/C(=C/Cc1c(C(=O)O)c(O[C@@H]2O[C@H](CO)[C@@H](O)[C@H](O)[C@H]2O)c2ccccc2c1O[C@@H]1O[C@H](CO)[C@@H](O)[C@H](O)[C@H]1O)CO`, the MIC in the experiment on Helicobacter pylori [1], with Helicobacter pylori [2] and in the experiment with Helicobacter pylori [3] was over 64 µg/mL throughout.

As for `CO[C@H]1Cc2c(c(O[C@@H]3O[C@H](CO)[C@@H](O)[C@H](O)[C@H]3O)c3ccccc3c2O[C@@H]2O[C@H](CO)[C@@H](O)[C@H](O)[C@H]2O)CO1`, the MIC in the experiment on Helicobacter pylori [1], in the experiment with Helicobacter pylori [2] and in the experiment with Helicobacter pylori [3] was over 64 µg/mL in each case.

In the case of `CO[C@H]1OCc2c(c(O[C@@H]3O[C@H](CO)[C@@H](O)[C@H](O)[C@H]3O)c3ccccc3c2O[C@@H]2O[C@H](C)[C@@H](O)[C@H](O)[C@H]2O)[C@@H]1O`, the MIC in the experiment on Helicobacter pylori [1] is 64 µg/mL (≈ 112 µM); in the experiment with Helicobacter pylori [2], 32 µg/mL (≈ 56.1 µM); with Helicobacter pylori [3], 64 µg/mL (≈ 112 µM).

With `OC[C@H]1O[C@@H](Oc2c3c(c(O[C@@H]4O[C@H](CO)[C@@H](O)[C@H](O)[C@H]4O)c4ccccc24)COC=C3)[C@H](O)[C@@H](O)[C@@H]1O`, the MIC with Helicobacter pylori [1], in the experiment with Helicobacter pylori [2] and with Helicobacter pylori [3] was 32 µg/mL (≈ 59.4 µM) each time.

Take `COC(=O)c1ccc2c(c1)C(=O)c1cc(O)ccc1C2=O`: the MIC in the experiment on Helicobacter pylori [1] turned out to be 2 µg/mL (≈ 7.09 µM); in the experiment on Helicobacter pylori [2] it was 2 µg/mL (≈ 7.09 µM); in the experiment on Helicobacter pylori [3] it was 4 µg/mL (≈ 14.2 µM).

As for `CO[C@@H]1Cc2c(c(O[C@@H]3O[C@H](CO)[C@@H](O)[C@H](O)[C@H]3O)c3ccccc3c2O[C@@H]2O[C@H](CO)[C@@H](O)[C@H](O)[C@H]2O)CO1`, the MIC with Helicobacter pylori [1], with Helicobacter pylori [2] and in the experiment with Helicobacter pylori [3] was over 64 µg/mL each time.

`C[C@H]1O[C@@H](Oc2c3c(c(O[C@@H]4O[C@H](CO)[C@@H](O)[C@H](O)[C@H]4O)c4ccccc24)C=COC3)[C@H](O)[C@@H](O)[C@@H]1O`: the MIC with Helicobacter pylori [1], in the experiment with Helicobacter pylori [2] and in the experiment with Helicobacter pylori [3] was 32 µg/mL (≈ 61.2 µM) throughout.

For `CO[C@H]1Cc2c(c(O[C@@H]3O[C@H](C)[C@@H](O)[C@H](O)[C@H]3O)c3ccccc3c2O[C@@H]2O[C@H](CO)[C@@H](O)[C@H](O)[C@H]2O)CO1`, the MIC in the experiment with Helicobacter pylori [1], with Helicobacter pylori [2] and with Helicobacter pylori [3] was over 64 µg/mL in each case.

As for `COc1ccc2c(c1)C(=O)c1cc(CO)ccc1C2=O`, the minimum inhibitory concentration (MIC) in the experiment on Helicobacter pylori [1], with Helicobacter pylori [2] and in the experiment with Helicobacter pylori [3] was 8 µg/mL (≈ 29.8 µM) each time.

As to `CC[C@H]1OC(=O)[C@H](C)[C@@H](O[C@H]2C[C@@](C)(OC)[C@@H](O)[C@H](C)O2)[C@H](C)[C@@H](O[C@@H]2O[C@H](C)C[C@H](N(C)C)[C@H]2O)[C@](C)(OC)C[C@@H](C)C(=O)[C@H](C)[C@@H](O)[C@]1(C)O` [CLARITHROMYCIN], the MIC in the experiment on Helicobacter pylori [1] is 0.008 µg/mL (≈ 0.0107 µM); in the experiment on Helicobacter pylori [2], 2 µg/mL (≈ 2.67 µM); with Helicobacter pylori [3] it was 2 µg/mL (≈ 2.67 µM).

On to `C[C@H]1COc2c(N3CCN(C)CC3)c(F)cc3c(=O)c(C(=O)O)cn1c23.C[C@H]1COc2c(N3CCN(C)CC3)c(F)cc3c(=O)c(C(=O)O)cn1c23.O` [LEVOFLOXACIN], for which the MIC turned out to be 0.25 µg/mL in the experiment with Helicobacter pylori [1], 16 µg/mL in the experiment on Helicobacter pylori [2] and 8 µg/mL with Helicobacter pylori [3].

For the compound `Cc1ncc([N+](=O)[O-])n1CCO` [METRONIDAZOLE], the minimal inhibitory concentration (MIC) is 2 µg/mL (≈ 11.7 µM) in the experiment with Helicobacter pylori [1], 32 µg/mL (≈ 187 µM) in the experiment on Helicobacter pylori [2] and 16 µg/mL (≈ 93.5 µM) in the experiment with Helicobacter pylori [3]. Also, the Activity in the experiment on Helicobacter pylori [5] was 33%; in the experiment on Helicobacter pylori [6], 0.76 log10CFU/ml.
